Measured values published in patent publication US11713335B2, “Aminocoumarin compounds and methods of their use” (President and Fellows of Harvard College, priority 2018, dated 2023).
Values after ≈ are worked out from the molar mass of the structure shown. Like-named read-outs stand apart in the source and are kept apart here.

Columns and labels:
E. cloacae 13047 = test: Minimal inhibitory concentration, E. cloacae 13047; format: cell-based; conditions: 16 hour minimal inhibitory concentration at 37° C., read-out: MIC (μM) E. cloacae 13047
Outline: (§1)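 Broth microdilution, 2-fold series from DMSO stock; inoculum = saturated overnight culture (LB; TSA for S. aureus) diluted 1:100 then 1:100. 37 °C, 16 h, no shaking. OD600 read-out; MIC = lowest conc. inhibiting growth (µM).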

E. coli MC4100 = test: Minimal inhibitory concentration, E. coli MC4100; format: cell-based; conditions: 16 hour minimal inhibitory concentration at 37° C., read-out: MIC (μM) E. coli MC4100 ara+
Outline: as §1

A. baumannii 19606 = test: Minimal inhibitory concentration, A. baumannii 19606; format: cell-based; conditions: 16 hour minimal inhibitory concentration at 37° C., read-out: MIC (μM) A. baumannii 19606
Outline: as §1

K. pneumoniae 700721 = test: Minimal inhibitory concentration, K. pneumoniae 700721; format: cell-based; conditions: 16 hour minimal inhibitory concentration at 37° C., read-out: MIC (μM) K. pneumoniae 700721
Outline: as §1

WT E. coli = test: Minimal inhibitory concentration in wild-type E. coli; format: cell-based, Escherichia coli; conditions: wild-type E. coli, 37° C., 16 hours, read-out: MIC (μM) in WT E. coli
Outline: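 Broth microdilution: saturated LB overnight culture diluted 1:100 twice, compound serially two-fold diluted across the plate from DMSO stock. Static incubation 16 hours at 37° C, OD600 read; MIC taken as lowest concentration inhibiting growth.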

S. aureus RN4220 = test: Minimal inhibitory concentration, S. aureus RN4220; format: cell-based; conditions: 16 hour minimal inhibitory concentration at 37° C., read-out: MIC (μM) S. aureus RN4220
Outline: as §1

S. aureus MW2 = test: Minimal inhibitory concentration, S. aureus MW2; format: cell-based; conditions: 16 hour minimal inhibitory concentration at 37° C., read-out: MIC (μM) S. aureus MW2 (MRSA)
Outline: as §1

E. coli 25922 = test: Minimal inhibitory concentration, E. coli 25922; format: cell-based; conditions: 16 hour minimal inhibitory concentration at 37° C., read-out: MIC (μM) E. coli 25922
Outline: as §1

[1] = Acinetobacter baumannii, 19606, 16 h
[2] = Staphylococcus aureus, RN4220, 16 h
[3] = Staphylococcus aureus, MRSA, 16 h

Compound | MIC (E. cloacae 13047; Enterobacter cloacae, 13047) | MIC (E. coli MC4100; Escherichia coli, MC4100, 16 h) | MIC (A. baumannii 19606; [1]) | MIC (K. pneumoniae 700721; Klebsiella pneumoniae, 700721) | MIC (WT E. coli; Escherichia coli) | MIC (S. aureus RN4220; [2]) | MIC (S. aureus MW2; [3]) | MIC (E. coli 25922; Escherichia coli, 25922, 16 h) | MIC (E. cloacae 13047) | MIC (E. coli MC4100) | MIC (A. baumannii 19606) | MIC (K. pneumoniae 700721) | MIC (WT E. coli) | MIC (S. aureus RN4220) | MIC (S. aureus MW2) | MIC (E. coli 25922)
CO[C@@H]1[C@@H](OC(N)=O)[C@@H](O)[C@H](Oc2ccc3c(O)c(NC(=O)CCc4ccccc4)c(=O)oc3c2C)OC1(C)C [Compound 43] | > 100 µM | > 200 µM | > 50 µM | > 100 µM | > 300 µM | > 100 µM | > 100 µM | > 200 µM | – | – | – | – | – | – | – | –
CO[C@@H]1[C@@H](OC(N)=O)[C@@H](O)[C@H](Oc2ccc3c(O)c(NC(=O)c4ccc(Oc5ccccc5)cc4)c(=O)oc3c2C)OC1(C)C [Compound 44] | – | – | – | – | – | – | – | – | >100 µM | >200 µM | >50 µM | >100 µM | >300 µM | 45 µM (≈ 27.9 µg/mL) | 40 µM (≈ 24.8 µg/mL) | >200 µM
COc1cccc(-c2cccc(C(=O)Nc3c(O)c4ccc(O[C@@H]5OC(C)(C)[C@H](OC)[C@@H](OC(N)=O)[C@H]5O)c(C)c4oc3=O)c2)c1 [Compound 45] | > 100 µM | – | – | > 100 µM | 89 µM (≈ 56.5 µg/mL) | – | – | – | – | 89 µM (≈ 56.5 µg/mL) | >50 µM | – | – | 5 µM (≈ 3.17 µg/mL) | 3 µM (≈ 1.9 µg/mL) | 79 µM (≈ 50.1 µg/mL)
COc1ccc(-c2cccc(C(=O)Nc3c(O)c4ccc(O[C@@H]5OC(C)(C)[C@H](OC)[C@@H](OC(N)=O)[C@H]5O)c(C)c4oc3=O)c2)cc1 [Compound 46] | > 100 µM | > 200 µM | > 50 µM | > 100 µM | > 300 µM | 5 µM (≈ 3.17 µg/mL) | 3 µM (≈ 1.9 µg/mL) | > 200 µM | – | – | – | – | – | – | – | –
CO[C@@H]1[C@@H](OC(N)=O)[C@@H](O)[C@H](Oc2ccc3c(O)c(NC(=O)c4cccc(-c5ccccc5C)c4)c(=O)oc3c2C)OC1(C)C [Compound 47] | > 100 µM | 26 µM (≈ 16.1 µg/mL) | > 50 µM | > 100 µM | 26 µM (≈ 16.1 µg/mL) | 20 µM (≈ 12.4 µg/mL) | 10 µM (≈ 6.19 µg/mL) | 40 µM (≈ 24.7 µg/mL) | – | – | – | – | – | – | – | –
CO[C@@H]1[C@@H](OC(N)=O)[C@@H](O)[C@H](Oc2ccc3c(O)c(NC(=O)c4cccc(-c5ccc(C(C)C)cc5)c4)c(=O)oc3c2C)OC1(C)C [Compound 48] | > 100 µM | 89 µM (≈ 57.6 µg/mL) | 19 µM (≈ 12.3 µg/mL) | 77 µM (≈ 49.8 µg/mL) | 89 µM (≈ 57.6 µg/mL) | 0.77 µM (≈ 0.498 µg/mL) | 0.48 µM (≈ 0.31 µg/mL) | 77 µM (≈ 49.8 µg/mL) | – | – | – | – | – | – | – | –
CO[C@@H]1[C@@H](OC(N)=O)[C@@H](O)[C@H](Oc2ccc3c(O)c(NC(=O)c4cccc(-c5ccccc5C(C)C)c4)c(=O)oc3c2C)OC1(C)C [Compound 49] | – | – | – | – | – | – | – | – | >100 µM | >200 µM | >50 µM | >100 µM | >300 µM | 10 µM (≈ 6.47 µg/mL) | 5 µM (≈ 3.23 µg/mL) | >200 µM
COc1ccccc1-c1cccc(C(=O)Nc2c(O)c3ccc(O[C@@H]4OC(C)(C)[C@H](OC)[C@@H](OC(N)=O)[C@H]4O)c(C)c3oc2=O)c1 [Compound 50] | – | – | – | – | – | – | – | – | >100 µM | 40 µM (≈ 25.4 µg/mL) | >50 µM | >100 µM | 40 µM (≈ 25.4 µg/mL) | 19 µM (≈ 12.1 µg/mL) | 10 µM (≈ 6.35 µg/mL) | 39 µM (≈ 24.8 µg/mL)
CO[C@@H]1[C@@H](OC(N)=O)[C@@H](O)[C@H](Oc2ccc3c(O)c(NC(=O)c4cccc(-c5cccc(C)c5)c4)c(=O)oc3c2C)OC1(C)C [Compound 51] | > 100 µM | 26 µM (≈ 16.1 µg/mL) | 40 µM (≈ 24.7 µg/mL) | > 100 µM | 26 µM (≈ 16.1 µg/mL) | 1.62 µM (≈ 1 µg/mL) | 1 µM (≈ 0.619 µg/mL) | 81 µM (≈ 50.1 µg/mL) | – | – | – | – | – | – | – | –
CO[C@@H]1[C@@H](OC(N)=O)[C@@H](O)[C@H](Oc2ccc3c(O)c(NC(=O)c4cccc(N5CCN(C)CC5)c4)c(=O)oc3c2C)OC1(C)C [Compound 52] | > 100 µM | > 200 µM | > 50 µM | > 100 µM | > 300 µM | > 100 µM | > 100 µM | 160 µM (≈ 100 µg/mL) | – | – | – | – | – | – | – | –
CO[C@@H]1[C@@H](OC(N)=O)[C@@H](O)[C@H](Oc2ccc3c(O)c(NC(=O)c4cccc(C5CCC5)c4)c(=O)oc3c2C)OC1(C)C [Compound 53] | – | – | – | – | – | – | – | – | >100 µM | >200 µM | >50 µM | >100 µM | >300 µM | 11 µM (≈ 6.41 µg/mL) | 11 µM (≈ 6.41 µg/mL) | >200 µM
CCc1ccc(-c2cccc(C(=O)Nc3c(O)c4ccc(O[C@@H]5OC(C)(C)[C@H](OC)[C@@H](OC(N)=O)[C@H]5O)c(C)c4oc3=O)c2)cc1 [Compound 54] | – | – | – | – | – | – | – | – | >100 µM | 40 µM (≈ 25.3 µg/mL) | 20 µM (≈ 12.7 µg/mL) | 79 µM (≈ 50 µg/mL) | 40 µM (≈ 25.3 µg/mL) | 0.99 µM (≈ 0.626 µg/mL) | 0.99 µM (≈ 0.626 µg/mL) | 79 µM (≈ 50 µg/mL)
CO[C@@H]1[C@@H](OC(N)=O)[C@@H](O)[C@H](Oc2ccc3c(O)c(NC(=O)c4cccc(-c5ccc(C(F)(F)F)cc5)c4)c(=O)oc3c2C)OC1(C)C [Compound 55] | – | – | – | – | – | – | – | – | >100 µM | >200 µM | 37 µM (≈ 24.9 µg/mL) | >100 µM | >300 µM | 1.49 µM (≈ 1 µg/mL) | 0.93 µM (≈ 0.626 µg/mL) | >200 µM
CO[C@@H]1[C@@H](OC(N)=O)[C@@H](O)[C@H](Oc2ccc3c(O)c(NC(=O)c4cccc(-c5cccc(C(F)(F)F)c5)c4)c(=O)oc3c2C)OC1(C)C [Compound 56] | – | – | – | – | – | – | – | – | >100 µM | >200 µM | 37 µM (≈ 24.9 µg/mL) | >100 µM | >300 µM | 0.74 µM (≈ 0.498 µg/mL) | 0.46 µM (≈ 0.309 µg/mL) | >200 µM
CO[C@@H]1[C@@H](OC(N)=O)[C@@H](O)[C@H](Oc2ccc3c(O)c(NC(=O)c4cccc(-c5ccc(OC(F)(F)F)cc5)c4)c(=O)oc3c2C)OC1(C)C [Compound 57] | – | – | – | – | – | – | – | – | >100 µM | >200 µM | 18 µM (≈ 12.4 µg/mL) | >100 µM | >300 µM | 1.45 µM (≈ 0.998 µg/mL) | 0.91 µM (≈ 0.627 µg/mL) | >200 µM
CO[C@@H]1[C@@H](OC(N)=O)[C@@H](O)[C@H](Oc2ccc3c(O)c(NC(=O)c4cccc(-c5cccc(OC(F)(F)F)c5)c4)c(=O)oc3c2C)OC1(C)C [Compound 58] | – | – | – | – | – | – | – | – | >100 µM | 89 µM (≈ 61.3 µg/mL) | 18 µM (≈ 12.4 µg/mL) | >100 µM | 89 µM (≈ 61.3 µg/mL) | 0.36 µM (≈ 0.248 µg/mL) | 0.18 µM (≈ 0.124 µg/mL) | >200 µM
CO[C@@H]1[C@@H](OC(N)=O)[C@@H](O)[C@H](Oc2ccc3c(O)c(NC(=O)c4cccc(-c5ccccc5OC(F)(F)F)c4)c(=O)oc3c2C)OC1(C)C [Compound 59] | – | – | – | – | – | – | – | – | >100 µM | 40 µM (≈ 27.5 µg/mL) | >50 µM | >100 µM | 40 µM (≈ 27.5 µg/mL) | 9 µM (≈ 6.2 µg/mL) | 5 µM (≈ 3.44 µg/mL) | >200 µM
CO[C@@H]1[C@@H](OC(N)=O)[C@@H](O)[C@H](Oc2ccc3c(O)c(NC(=O)c4cccc(-c5ccccc5C(F)(F)F)c4)c(=O)oc3c2C)OC1(C)C [Compound 60] | – | – | – | – | – | – | – | – | >100 µM | >200 µM | >50 µM | >100 µM | >300 µM | 9 µM (≈ 6.05 µg/mL) | 5 µM (≈ 3.36 µg/mL) | >200 µM
CO[C@@H]1[C@@H](OC(N)=O)[C@@H](O)[C@H](Oc2ccc3c(O)c(NC(=O)c4cccc(-c5cccc(C(C)C)c5)c4)c(=O)oc3c2C)OC1(C)C [Compound 61] | – | – | – | – | – | – | – | – | >100 µM | 59 µM (≈ 38.2 µg/mL) | 10 µM (≈ 6.47 µg/mL) | >100 µM | 59 µM (≈ 38.2 µg/mL) | 0.39 µM (≈ 0.252 µg/mL) | 0.19 µM (≈ 0.123 µg/mL) | 77 µM (≈ 49.8 µg/mL)
CO[C@@H]1[C@@H](OC(N)=O)[C@@H](O)[C@H](Oc2ccc3c(O)c(NC(=O)c4cccc(C5CCCCC5)c4)c(=O)oc3c2C)OC1(C)C [Compound 62] | – | – | – | – | – | – | – | – | >100 µM | 59 µM (≈ 36 µg/mL) | >50 µM | 82 µM (≈ 50.1 µg/mL) | 59 µM (≈ 36 µg/mL) | 5 µM (≈ 3.05 µg/mL) | 3 µM (≈ 1.83 µg/mL) | 82 µM (≈ 50.1 µg/mL)
